From patent US20160000796A1, “PHARMACEUTICAL COMPOSITION FOR USE IN PREVENTION OR TREATMENT OF CANCER” (priority 2013, published 2016)

Experiments:
[1] = test system: non-ATL cell line, Jurkat; assay: Cell-cycle analysis by flow cytometry (PI), Jurkat; assay type: cell-based, human; details: 10 μM or 100 μM, 24 hours
Description: To an ATL cell line, ED40515 (−), or a non-ATL cell line, Jurkat, DMSO (solvent control), adriamycin (ADR, positive control) or abacavir (10 μM or 100 μM) was added.

[2] = test system: HTLV-1-producing cell line, MT2; assay: Cellular proliferation test (MTS assay), MT2; assay type: cell-based
Description: HTLV-1-producing cell lines, MT2 (transformant with HTLV-1, JCRB cell No: JCRB1210) and HUT102 (ATL-derived cell line, ATCC No: TIB-162), were used.
(§1) Each nucleoside analogue reverse transcriptase inhibitor was added to the medium for cells at a final concentration of 100 μM. Cells were seeded on a 96-well plate at a concentration of 1×10^4 cells/100 μL/well and cultured for 4 hours (Day 0), 48 hours (Day 2) or 96 hours (Day 4). A medium added DMSO (solvent control) alone was used as a control. Cellular proliferation was examined by MTS assay. Specifically, after the cells were cultured for a predetermined time, a reagent for cellular proliferation test, Aqueous One Solution Cell Proliferation (trade name, manufactured by Promega), was added to the cells. Four hours later, absorbance at 490 nm was measured. The cellular proliferation was represented by a ratio relative to that of the control (solvent control) on Day 0 that was regarded as 1.
Abacavir was added to MT2 and HUT102 used in Example 1 at a concentration of 0 μM (DMSO was added instead of abacavir), 10 μM, 25 μM, 50 μM, 75 μM or 100 μM. The cells were seeded on a 96-well plate at a concentration of 1×10^4 cells/100 μL/well and cultured for 4 hours or 48 hours. […]

[3] = test system: ATL cell line, ED40515 (−); assay: Apoptosis (annexin V flow cytometry), ED40515 (−); assay type: cell-based; details: 100 μM, 24 or 48 hours
Description: DMSO (solvent control), adriamycin (ADR, positive control), or abacavir (100 μM) was added to an ATL cell line, ED40515 (−). The cells were cultured for 24 hours or 48 hours. After the culture of a predetermined time, the cells were stained with annexin V, and annexin V positive cells were measured by flow cytometry. The annexin V positive cells were determined as apoptotic cells.

[4] = test system: SUDHL6 (non-HTLV-1-infected cell line); assay: Cellular proliferation (MTS assay), SUDHL6; assay type: cell-based; details: 100 μM
Description: as §1
This example used non-HTLV-1-infected cell lines: Jurkat (cell line derived from human T-cell leukemia, ATCC No: TIB-152), Kit225 (cell line derived from chronic T-cell leukemia, established in the laboratory of the inventors, Blood. 1987 October; 70 (4): 1069-72.), H9 (cell line derived from cutaneous T-cell lymphoma, ATCC No: HTB-176) and SUDHL6 (cell line derived from diffuse B cell lymphoma).
The six types of nucleoside analogue reverse transcriptase inhibitors as used in Example 1 were used and cellular proliferation was examined in the same manner as in Example 1.

[5] = test system: Rad51, γH2AX and PARP; assay: Induction of DNA repair proteins (immunostaining); assay type: cell-based; details: ED40515 (−) versus Jurkat; 100 μM; 48 hours
Description: To an ATL cell line, ED40515 (−), or a non-ATL cell line, Jurkat, DMSO (solvent control) or abacavir was added at a concentration of 100 μM. The cells were cultured for 48 hours. The cells were fixed on slides, immuno-stained for Rad51, γH2AX and PARP, and observed by a fluorescent microscope. At least 70 cells per group were observed and the ratio of cells positive for each protein was calculated. Rad51, which is a homologue of a RecA protein of Escherichia coli, is involved in repair of double-strand DNA break. γH2AX, which is a phosphorylated histone protein, is involved in repair of double-strand DNA break. PARP, which is a poly(ADP-ribose) synthetase, is involved in repair of single-strand DNA break.

[6] = test system: ED40515 (−) (non-virus-producing ATL cell line); assay: Cellular proliferation (MTS assay), ED40515 (−); assay type: cell-based
Description: as §1
This example used HTLV-1-infected cell lines (non-virus-producing ATL cell lines): ED40515 (−), ED40515 (+), and ATL43T (all were provided by Prof. Michiyuki Maeda who produced the cells); and SYK-11L (+) (prepared in the laboratory of the inventors).
The six types of nucleoside analogue reverse transcriptase inhibitors as used in Example 1 were used and cellular proliferation was examined in the same manner as in Example 1. […]

[7] = test system: non-ATL cell line, Jurkat; assay: Chromosome double-strand break (Giemsa chromosome specimens), Jurkat; assay type: cell-based, human; details: 100 μM, 48 hours
Description: Abacavir was added to an ATL cell line, ED40515 (−), at a concentration of 0 μM (DMSO was added instead of abacavir), 10 μM, 25 μM, 50 μM, 75 μM or 100 μM. After the 48 hours culture, the cells were fixed by Carnoy and stained with Giemsa to prepare chromosome specimens in accordance with conventional methods. Similarly, zidovudine was added to ED40515 (−) at a concentration of 10 μM or 100 μM, and abacavir was added to a non-ATL cell line, Jurkat, at a concentration of 100 μM, and chromosome specimens were prepared. Chromosome images (100 or more images per group) were observed by an optical microscope. The cells were determined as being positive for double-strand break (DSB) when at least one chromosome break was found.

Nc1nc(NC2CC2)c2ncn([C@H]3C=C[C@@H](CO)C3)c2n1 [abacavir, (−)-(1S,4R)-4-[2-amino-6-(cyclopropylamino)-9H-purin-9-yl]-2-cyclopentene-1-methanol]
cell cycle (ratio of cells in G0G1/S/G2 phase) [1]: did not affect the cell cycle | cellular proliferation (ratio relative to solvent control on Day 0) ([2]; 100 μM, Day 0, 2, 4, compared among six NRTIs): most strongly suppressed | cellular proliferation, dose dependence ([2]; 10, 25, 50, 75, 100 μM, 48 hours): suppressed cellular proliferation of both cell lines in a dose-dependent manner | apoptosis (annexin V positive cells) [3]: induced apoptosis | cellular proliferation [4]: did not exhibit a suppressive effect | ratio of PARP positive cells [5]: induces Rad51, γH2AX, and PARP specifically in an ATL cell line | ratio of Rad51 positive cells [5]: induces Rad51, γH2AX, and PARP specifically in an ATL cell line | ratio of γH2AX positive cells [5]: induces Rad51, γH2AX, and PARP specifically in an ATL cell line | cellular proliferation ([6]; 100 μM): strong suppressive effect | cellular proliferation, dose dependence ([6]; 10-100 μM, Day 0, 2, 4): suppressed cellular proliferation of all the cell lines in a dose-dependent manner | ratio of double-strand break-positive cells [7]: did not induce double-strand break
